Assay results as given in publication PMC8691750, “Euphorbia Factor L2 ameliorates the Progression of K/BxN Serum-Induced Arthritis by Blocking TLR7 Mediated IRAK4/IKKβ/IRF5 and NF-kB Signaling Pathways” (Frontiers in Pharmacology, 2021).
Several values for one entry are separate records, joined by “and”; a condition that tells them apart may be missing. Equal values may be shown once.

Tested on: TLR signalling pathway genes
Assay: Toll-like Receptor Pathway PCR array of ankles
Type: in vivo, C57BL/6 mice
Settings: for S40/SIA (fold change) / log2(fold change) S40/SIA: S40 group vs SIA group
Experimental: Total RNA was isolated from the right ankles using the TRIzol Reagent (Invitrogen) and purified with RNeasy Mini Kit and RNase-Free DNase Set (Qiagen). RNA quality was determined using a spectrophotometer and was reversely transcribed using Wcgene® mRNA cDNA kit. The complementary DNA was used on the Toll-like Receptor Pathway PCR Array plate (Wcgene® biotech, China).

C=C1C(OC(=O)c2ccccc2)CC2C(C=C(C)C(=O)C3(OC(C)=O)CC(C)C(OC(=O)c4ccccc4)C3C1OC(C)=O)C2(C)C (stereo not shown) [EFL2, Euphorbia factor L2]
fold-GAPDH, ACTB (ACTB mRNA relative to GAPDH (内参-GAPDH), individual mice of EFL2 group (S401, S402, S404, S405 = EFL2-1 to -4)): 1.058 and 1.072 and 0.8044 | fold-GAPDH, B2M (B2M mRNA relative to GAPDH, individual mice of EFL2 group (S401, S402, S404, S405)): 0.312 and 0.4388 and 0.3402 and 0.1942 | fold-GAPDH, Becn1 (Becn1 mRNA relative to GAPDH, individual mice of EFL2 group (S401, S402, S404, S405)): 0.001891 and 0.007192 and 0.004096 | S40/SIA (fold change) (Becn1 mRNA): 0.2727 | log2(fold change) S40/SIA (Becn1 mRNA): -1.875 | fold-GAPDH, Btk (Btk mRNA relative to GAPDH, individual mice of EFL2 group (S401, S402, S404, S405)): 0.002403 and 0.001831 and 0.004678 and 0.001063 | S40/SIA (fold change) (Btk mRNA): 0.3155 | log2(fold change) S40/SIA (Btk mRNA): -1.664 | fold-GAPDH, Casp8 (Casp8 mRNA relative to GAPDH, individual mice of EFL2 group (S401, S402, S404, S405)): 0.01634 and 0.01358 and 0.009475 | S40/SIA (fold change) (Casp8 mRNA): 0.2393 | log2(fold change) S40/SIA (Casp8 mRNA): -2.063 | fold-GAPDH, Ccl2 (Ccl2 mRNA relative to GAPDH, individual mice of EFL2 group (S401, S402, S404, S405)): 0.01529 and 0.00629 and 0.0002036 | S40/SIA (fold change) (Ccl2 mRNA): 0.0326 | log2(fold change) S40/SIA (Ccl2 mRNA): -4.939 | fold-GAPDH, Ccl11 (Ccl11 mRNA relative to GAPDH, individual mice of EFL2 group (S401, S402, S404, S405)): 0.01036 and 0.008836 and 0.01327 and 0.005579 | S40/SIA (fold change) (Ccl11 mRNA): 1.864 | log2(fold change) S40/SIA (Ccl11 mRNA): 0.8985 | fold-GAPDH, Ccl20 (Ccl20 mRNA relative to GAPDH, individual mice of EFL2 group (S401, S402, S404, S405)): 3.719e-5 and 0.0001299 | fold-GAPDH, Cd14 (Cd14 mRNA relative to GAPDH, individual mice of EFL2 group (S401, S402, S404, S405)): 0.005751 and 0.00806 and 0.003038 and 0.001749 | fold-GAPDH, Cd80 (Cd80 mRNA relative to GAPDH, individual mice of EFL2 group (S401, S402, S404, S405)): 0.002341 and 0.005041 and 0.0008698 | fold-GAPDH, Cd86 (Cd86 mRNA relative to GAPDH, individual mice of EFL2 group (S401, S402, S404, S405)): 0.0007215 and 0.0005777 and 0.0007714 and 0.0003428 | S40/SIA (fold change) (Cd86 mRNA): 0.1925 | log2(fold change) S40/SIA (Cd86 mRNA): -2.3771 | fold-GAPDH, Chuk (Chuk mRNA relative to GAPDH, individual mice of EFL2 group (S401, S402, S404, S405)): 0.008767 and 0.01087 and 0.008829 | S40/SIA (fold change) (Chuk mRNA): 0.3313 | log2(fold change) S40/SIA (Chuk mRNA): -1.594 | fold-GAPDH, Clec4e (Clec4e mRNA relative to GAPDH, individual mice of EFL2 group (S401, S402, S404, S405)): 0.0002637 and 0.002249 and 0.0004993 and 4.1493e-5 | S40/SIA (fold change) (Clec4e mRNA): 0.0859 | log2(fold change) S40/SIA (Clec4e mRNA): -3.541 | fold-GAPDH, Cxcl10 (Cxcl10 mRNA relative to GAPDH, individual mice of EFL2 group (S401, S402, S404, S405)): 2.1064e-5 | S40/SIA (fold change) (Cxcl10 mRNA): 0.002337 | log2(fold change) S40/SIA (Cxcl10 mRNA): -8.741 | fold-GAPDH, Eif2ak2 (Eif2ak2 mRNA relative to GAPDH, individual mice of EFL2 group (S401, S402, S404, S405)): 0.004437 and 0.00565 and 0.003196 | fold-GAPDH, Elk1 (Elk1 mRNA relative to GAPDH, individual mice of EFL2 group (S401, S402, S404, S405)): 0.006009 and 0.005652 and 0.006734 and 0.002589 | S40/SIA (fold change) (Elk1 mRNA): 0.3565 | log2(fold change) S40/SIA (Elk1 mRNA): -1.488 | fold-GAPDH, Fadd (Fadd mRNA relative to GAPDH, individual mice of EFL2 group (S401, S402, S404, S405)): 0.001977 and 0.0009207 and 0.00158 and 0.0009332 | S40/SIA (fold change) (Fadd mRNA): 0.1995 | log2(fold change) S40/SIA (Fadd mRNA): -2.325 | fold-GAPDH, Fos (Fos mRNA relative to GAPDH, individual mice of EFL2 group (S401, S402, S404, S405)): 0.02349 and 0.0137 and 0.0143 and 0.009915 | fold-GAPDH, HPRT1 (HPRT1 mRNA relative to GAPDH, individual mice of EFL2 group (S401, S402, S404, S405)): 0.01241 and 0.008273 and 0.01631 | fold-GAPDH, Hmgb1 (Hmgb1 mRNA relative to GAPDH, individual mice of EFL2 group (S401, S402, S404, S405)): 0.3089 and 0.3274 and 0.2681 and 0.1726 | fold-GAPDH, Hras1 (Hras1 mRNA relative to GAPDH, individual mice of EFL2 group (S401, S402, S404, S405)): 0.02419 and 0.02746 and 0.02268 and 0.01475 | S40/SIA (fold change) (Hras1 mRNA): 0.4915 | log2(fold change) S40/SIA (Hras1 mRNA): -1.025 | fold-GAPDH, Hspa1a (Hspa1a mRNA relative to GAPDH, individual mice of EFL2 group (S401, S402, S404, S405)): 0.03203 and 0.003543 and 0.006228 | fold-GAPDH, Hspd1 (Hspd1 mRNA relative to GAPDH, individual mice of EFL2 group (S401, S402, S404, S405)): 0.02796 and 0.02518 and 0.003019 and 0.01313 | S40/SIA (fold change) (Hspd1 mRNA): 0.2339 | log2(fold change) S40/SIA (Hspd1 mRNA): -2.096 | fold-GAPDH, IRF5 (IRF5 mRNA in ankles of STA mice, relative to GAPDH, one value per animal (samples S401-S405)): 0.004631 and 0.004692 and 0.004033 and 0.001353 | S40/SIA (fold change) (IRF5 mRNA): 0.3677 | log2(fold change) S40/SIA (IRF5 mRNA): -1.443 | fold-GAPDH, Ikbkb (Ikbkb mRNA relative to GAPDH, individual mice of EFL2 group (S401, S402, S404, S405)): 0.009029 and 0.01266 and 0.01025 and 0.004561 | fold-GAPDH, Il1a (Il1a mRNA relative to GAPDH, individual mice of EFL2 group (S401, S402, S404, S405)): 0.0002392 and 0.0002831 and 9.48e-5 | fold-GAPDH, Il1b (Il1b mRNA relative to GAPDH, individual mice of EFL2 group (S401, S402, S404, S405)): 0.005996 and 0.0009616 and 0.0008 and 0.0006699 | S40/SIA (fold change) (Il1b mRNA): 0.0229 | log2(fold change) S40/SIA (Il1b mRNA): -5.448 | fold-GAPDH, Il6 (Il6 mRNA relative to GAPDH, individual mice of EFL2 group (S401, S402, S404, S405)): 0.002971 and 0.0008677 and 0.0003997 and 0.0006556 | S40/SIA (fold change) (Il6 mRNA): 0.03478 | log2(fold change) S40/SIA (Il6 mRNA): -4.845 | fold-GAPDH, Il6ra (Il6ra mRNA in ankles of STA mice, relative to GAPDH, one value per animal (samples S401-S405)): 0.009397 and 0.01121 and 0.004741 | fold-GAPDH, Il10 (Il10 mRNA relative to GAPDH, individual mice of EFL2 group (S401, S402, S404, S405)): 0.0001425 and 0.0002257 and 7.048e-5 and 9.932e-5 | S40/SIA (fold change) (Il10 mRNA): 0.2443 | log2(fold change) S40/SIA (Il10 mRNA): -2.033 | fold-GAPDH, Il12a (Il12a mRNA relative to GAPDH, individual mice of EFL2 group (S401, S402, S404, S405)): 0.001377 and 0.0005874 and 0.0009712 and 0.0002213 | fold-GAPDH, Ilr1 (Ilr1 mRNA in ankles of STA mice, relative to GAPDH, one value per animal (samples S401-S405)): 0.01383 and 0.01561 and 0.01023 and 0.00774 | S40/SIA (fold change) (Ilr1 mRNA): 0.09556 | log2(fold change) S40/SIA (Ilr1 mRNA): -3.388 | fold-GAPDH, Irak1 (Irak1 mRNA in ankles of STA mice, relative to GAPDH, one value per animal (samples S401-S405)): 0.02263 and 0.02515 and 0.01545 and 0.008286 | fold-GAPDH, Irak2 (Irak2 mRNA in ankles of STA mice, relative to GAPDH, one value per animal (samples S401-S405)): 0.003024 and 0.004831 and 0.004355 and 0.002516
